In ChEMBL document CHEMBL2151039, “Discovery and development of α7 nicotinic acetylcholine receptor modulators” (J Med Chem, 2011):

Key:
[1] = biological target: T1, Neuronal acetylcholine receptor subunit alpha-7 (Homo sapiens, UniProt P36544); assay: Binding affinity to alpha7 nAchR in human frontal cortex membranes; assay type: cell membranes, Membrane
[2] = biological target: T1, Neuronal acetylcholine receptor subunit alpha-7; assay: Agonist activity at alpha7 nAChR; assay type: functional
[3] = Volume of distribution in mouse; assay type: ADME, organism-based; settings: in vivo
[4] = Oral bioavailability in rat; assay type: ADME, organism-based; settings: in vivo
[5] = Oral bioavailability in dog; assay type: ADME, organism-based, Canis lupus familiaris; settings: in vivo
[6] = Volume of distribution in dog; assay type: ADME, organism-based, Canis lupus familiaris; settings: in vivo
[7] = biological target: T2, Neuronal acetylcholine receptor subunit alpha-7 (Rattus norvegicus, UniProt Q05941); assay: Binding affinity to alpha7 nAChR in rat brain membranes; assay type: cell membranes
T2 sequence (Q05941 whole entry): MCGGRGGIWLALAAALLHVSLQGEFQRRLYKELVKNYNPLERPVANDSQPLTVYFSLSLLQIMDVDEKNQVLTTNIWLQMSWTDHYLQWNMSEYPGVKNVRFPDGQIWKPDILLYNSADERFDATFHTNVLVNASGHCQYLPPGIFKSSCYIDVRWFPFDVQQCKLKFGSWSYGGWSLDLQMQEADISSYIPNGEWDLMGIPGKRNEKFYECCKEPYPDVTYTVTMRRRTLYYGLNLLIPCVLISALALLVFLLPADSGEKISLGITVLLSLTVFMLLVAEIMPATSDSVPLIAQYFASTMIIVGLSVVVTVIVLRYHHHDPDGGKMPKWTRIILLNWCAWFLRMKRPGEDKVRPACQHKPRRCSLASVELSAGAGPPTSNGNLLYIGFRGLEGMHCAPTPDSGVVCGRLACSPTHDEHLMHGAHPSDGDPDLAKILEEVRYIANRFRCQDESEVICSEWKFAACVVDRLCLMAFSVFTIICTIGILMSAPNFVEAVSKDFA

[8] = biological target: T3, 5-hydroxytryptamine receptor 3A (Homo sapiens, UniProt P46098); assay: Displacement of [3H]-BRL-43694 from human 5HT3 receptor
T3 sequence (P46098 whole entry): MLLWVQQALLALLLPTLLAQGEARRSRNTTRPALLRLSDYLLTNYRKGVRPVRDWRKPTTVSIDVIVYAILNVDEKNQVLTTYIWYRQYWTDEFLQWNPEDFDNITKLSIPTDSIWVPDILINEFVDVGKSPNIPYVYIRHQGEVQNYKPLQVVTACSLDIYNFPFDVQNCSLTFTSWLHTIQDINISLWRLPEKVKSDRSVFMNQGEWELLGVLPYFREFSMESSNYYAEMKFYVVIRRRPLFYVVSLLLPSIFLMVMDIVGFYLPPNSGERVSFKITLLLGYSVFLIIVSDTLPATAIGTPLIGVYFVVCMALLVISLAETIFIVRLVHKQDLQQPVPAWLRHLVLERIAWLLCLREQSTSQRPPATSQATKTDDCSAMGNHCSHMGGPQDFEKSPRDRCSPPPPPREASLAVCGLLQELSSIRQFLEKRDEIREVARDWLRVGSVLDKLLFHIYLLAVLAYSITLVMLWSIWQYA

[9] = Volume of distribution in rat; assay type: ADME, organism-based; settings: in vivo
[10] = biological target: T2, Neuronal acetylcholine receptor subunit alpha-7; assay: Displacement of [3H]-MLA from alpha7 nAChR in rat brain membranes; assay type: cell membranes
[11] = Oral bioavailability in mouse; assay type: ADME, organism-based; settings: in vivo
[12] = biological target: Neuronal acetylcholine receptor; alpha4/beta2 (Homo sapiens, UniProt P17787+P43681); assay: Binding affinity to alpha4beta2 nAChR; assay type: protein-complex assay
Neuronal acetylcholine receptor; alpha4/beta2, sequence (P17787 whole entry): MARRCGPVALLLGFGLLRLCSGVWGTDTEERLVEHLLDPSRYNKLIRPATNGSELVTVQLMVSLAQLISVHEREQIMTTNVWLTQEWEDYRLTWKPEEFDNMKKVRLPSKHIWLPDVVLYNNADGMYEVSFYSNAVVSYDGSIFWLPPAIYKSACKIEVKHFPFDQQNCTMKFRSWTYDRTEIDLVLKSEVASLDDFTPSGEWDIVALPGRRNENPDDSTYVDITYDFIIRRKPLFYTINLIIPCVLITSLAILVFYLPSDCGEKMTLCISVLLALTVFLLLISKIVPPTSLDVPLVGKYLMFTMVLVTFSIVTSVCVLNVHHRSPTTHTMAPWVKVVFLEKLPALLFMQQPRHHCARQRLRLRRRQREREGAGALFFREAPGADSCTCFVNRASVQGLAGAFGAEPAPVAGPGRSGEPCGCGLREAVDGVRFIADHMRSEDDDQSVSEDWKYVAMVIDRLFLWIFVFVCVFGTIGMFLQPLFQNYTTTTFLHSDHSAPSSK
Neuronal acetylcholine receptor; alpha4/beta2, sequence (P43681 whole entry): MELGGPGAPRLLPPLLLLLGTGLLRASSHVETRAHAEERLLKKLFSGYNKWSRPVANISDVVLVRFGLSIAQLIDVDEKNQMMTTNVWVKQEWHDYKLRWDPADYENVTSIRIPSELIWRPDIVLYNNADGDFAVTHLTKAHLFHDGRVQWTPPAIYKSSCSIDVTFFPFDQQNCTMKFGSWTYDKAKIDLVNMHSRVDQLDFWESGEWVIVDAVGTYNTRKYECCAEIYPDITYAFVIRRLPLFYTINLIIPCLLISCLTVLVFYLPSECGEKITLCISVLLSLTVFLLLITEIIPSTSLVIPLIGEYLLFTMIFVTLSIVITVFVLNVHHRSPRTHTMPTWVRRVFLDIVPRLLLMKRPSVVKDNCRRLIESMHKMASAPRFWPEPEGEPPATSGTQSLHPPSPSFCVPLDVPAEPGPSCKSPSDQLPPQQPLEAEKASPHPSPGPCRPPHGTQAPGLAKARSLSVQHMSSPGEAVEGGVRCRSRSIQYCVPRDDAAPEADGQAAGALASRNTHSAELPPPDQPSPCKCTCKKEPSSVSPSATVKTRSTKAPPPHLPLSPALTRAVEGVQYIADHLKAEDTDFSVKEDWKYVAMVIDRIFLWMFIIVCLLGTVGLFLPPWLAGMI

T1 sequence (P36544 whole entry): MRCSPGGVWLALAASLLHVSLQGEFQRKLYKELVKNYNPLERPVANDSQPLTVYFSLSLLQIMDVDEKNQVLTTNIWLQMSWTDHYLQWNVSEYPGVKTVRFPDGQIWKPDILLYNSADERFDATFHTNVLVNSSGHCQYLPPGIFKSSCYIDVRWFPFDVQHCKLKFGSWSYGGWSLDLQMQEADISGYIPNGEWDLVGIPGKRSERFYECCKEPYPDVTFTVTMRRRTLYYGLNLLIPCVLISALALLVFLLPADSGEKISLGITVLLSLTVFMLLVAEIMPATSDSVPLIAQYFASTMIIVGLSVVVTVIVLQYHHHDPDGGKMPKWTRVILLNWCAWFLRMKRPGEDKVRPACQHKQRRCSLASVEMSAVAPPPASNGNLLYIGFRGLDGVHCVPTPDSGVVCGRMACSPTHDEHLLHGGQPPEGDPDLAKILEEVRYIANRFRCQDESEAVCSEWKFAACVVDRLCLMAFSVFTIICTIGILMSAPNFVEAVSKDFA

CN1CC2CN(c3ccc(-c4ccccc4)nn3)CC2C1 (configuration not stated)
Ki [1]: 17 nM
EC50 [2]: 4260 nM
Vd [3]: 4 L/kg
bioavailability [4]: 90%
bioavailability [5]: 22%
Vd [6]: 4 L/kg
Ki [7]: 10.8 nM
Ki [8]: 150 nM
Vd [9]: 4 L/kg
Ki [10]: 88 nM
bioavailability [11]: 100%
Ki [12]: > 100000 nM
